pIC50: −log10 of the molar value. Where “and” joins values, the source holds several entries; their conditions need not be identical. Identical values can stand only once. Values belong to the compound of their own block, whether it stands above or below them.
Test system: K-562 leukemia growth, % test/control
Test: Anticancer human tumor K-562 cell line growth inhibition;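 note: spheroids exposed to compounds for 7 days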;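 for viability, T/C: 100% = DMSO vehicle wells and lower values mean fewer viable cells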
Conditions: spheroids with HUVEC and MSC; for viability, T/C: stronger effect = lower value
Outline: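 Drug combinations with the LSD1 inhibitor iadademstat tested on tumor cells co-cultured as spheroids with endothelial cells and mesenchymal stem cells. Concentrations descended in half-log increments from clinical Cmax or 10 microM.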

[1] = curve of first compound, second compound 0.1 µM
[2] = curve of first compound, second compound 0.316 µM
[3] = curve of first compound, second compound 1 µM
[4] = curve of first compound, second compound 3.16 µM
[5] = curve of first compound, second compound 10 µM
[6] = second compound 0.1 µM, first compound 0.00316 µM
[7] = second compound 0.1 µM, first compound 0.01 µM
[8] = second compound 0.1 µM, first compound 0.0316 µM
[9] = second compound 0.1 µM, first compound 0.1 µM
[10] = second compound 0.1 µM, first compound 0.316 µM
[11] = second compound 0.1 µM, first compound 1 µM
[12] = second compound 0.316 µM, first compound 0.00316 µM
[13] = second compound 0.316 µM, first compound 0.01 µM
[14] = second compound 0.316 µM, first compound 0.0316 µM
[15] = second compound 0.316 µM, first compound 0.1 µM
[16] = second compound 0.316 µM, first compound 0.316 µM
[17] = second compound 0.316 µM, first compound 1 µM
[18] = second compound 1 µM, first compound 0.00316 µM
[19] = second compound 1 µM, first compound 0.01 µM
[20] = second compound 1 µM, first compound 0.0316 µM
[21] = second compound 1 µM, first compound 0.1 µM
[22] = second compound 1 µM, first compound 0.316 µM
[23] = second compound 1 µM, first compound 1 µM
[24] = second compound 3.16 µM, first compound 0.00316 µM
[25] = second compound 3.16 µM, first compound 0.01 µM
[26] = second compound 3.16 µM, first compound 0.0316 µM
[27] = second compound 3.16 µM, first compound 0.1 µM
[28] = second compound 3.16 µM, first compound 0.316 µM
[29] = second compound 3.16 µM, first compound 1 µM
[30] = second compound 10 µM, first compound 0.00316 µM
[31] = second compound 10 µM, first compound 0.01 µM
[32] = second compound 10 µM, first compound 0.0316 µM
[33] = second compound 10 µM, first compound 0.1 µM
[34] = second compound 10 µM, first compound 0.316 µM
[35] = second compound 10 µM, first compound 1 µM

SMILES: CC1COCCN1c1cc(-c2ccnn2C)c2ccnc(-c3ccn[nH]3)c2n1 (stereo unspecified) + NC1CCC(NC2CC2c2ccccc2)CC1
pIC50 [1]: 7.95
pIC50 [2]: 7.91
pIC50 [3]: 7.94
pIC50 [4]: 8.00
pIC50 [5]: 8.14
viability, T/C [6]: 90.4%
viability, T/C [7]: 54.5%
viability, T/C [8]: 10.2%
viability, T/C [9]: 3.75%
viability, T/C [10]: 2.62%
viability, T/C [11]: 2.45%
viability, T/C [12]: 91%
viability, T/C [13]: 57.9%
viability, T/C [14]: 12.9%
viability, T/C [15]: 3.52%
viability, T/C [16]: 2.63%
viability, T/C [17]: 2.48%
viability, T/C [18]: 92.7%
viability, T/C [19]: 55.1%
viability, T/C [20]: 9.5%
viability, T/C [21]: 3.51%
viability, T/C [22]: 2.76%
viability, T/C [23]: 2.82%
viability, T/C [24]: 92.2%
viability, T/C [25]: 50.2%
viability, T/C [26]: 11.5%
viability, T/C [27]: 3.8%
viability, T/C [28]: 3.16%
viability, T/C [29]: 2.7%
viability, T/C [30]: 83.3%
viability, T/C [31]: 36.7%
viability, T/C [32]: 8.26%
viability, T/C [33]: 4.09%
viability, T/C [34]: 2.75%
viability, T/C [35]: 3.72%

SMILES: Nc1ncn(C2CC(O)C(CO)O2)c(=O)n1 (stereo unspecified) + NC1CCC(NC2CC2c2ccccc2)CC1
pIC50 [1]: 6.16
pIC50 [2]: 6.11
pIC50 [3]: 6.19
pIC50 [4]: 6.40
pIC50 [5]: 7.16
viability, T/C [6]: 102%
viability, T/C [7]: 98.2%
viability, T/C [8]: 89.2%
viability, T/C [9]: 71.4%
viability, T/C [10]: 54.7%
viability, T/C [11]: 47.8%
viability, T/C [12]: 104%
viability, T/C [13]: 100%
viability, T/C [14]: 90.3%
viability, T/C [15]: 71%
viability, T/C [16]: 56.4%
viability, T/C [17]: 48%
viability, T/C [18]: 103%
viability, T/C [19]: 100%
viability, T/C [20]: 89.4%
viability, T/C [21]: 72.4%
viability, T/C [22]: 56.3%
viability, T/C [23]: 46.1%
viability, T/C [24]: 102%
viability, T/C [25]: 99.5%
viability, T/C [26]: 88.1%
viability, T/C [27]: 68.4%
viability, T/C [28]: 50.8%
viability, T/C [29]: 45%
viability, T/C [30]: 89.3%
viability, T/C [31]: 84.5%
viability, T/C [32]: 64.2%
viability, T/C [33]: 45%
viability, T/C [34]: 25.6%
viability, T/C [35]: 24.9%

SMILES: COc1cc(C2c3cc4c(cc3C(OC3OC5COC(C)OC5C(O)C3O)C3COC(=O)C23)OCO4)cc(OC)c1O (stereo unspecified) + NC1CCC(NC2CC2c2ccccc2)CC1
pIC50 [1]: 7.62
pIC50 [2]: 7.59
pIC50 [3]: 7.57
pIC50 [4]: 7.56
pIC50 [5]: 7.57
viability, T/C (second compound 0.1 µM, first compound 0.00949 µM): 86.3%
viability, T/C (second compound 0.1 µM, first compound 0.03 µM): 34.6%
viability, T/C (second compound 0.1 µM, first compound 0.0949 µM): 26.9%
viability, T/C (second compound 0.1 µM, first compound 0.3 µM): 35.2%
viability, T/C (second compound 0.1 µM, first compound 0.949 µM): 13.8%
viability, T/C (second compound 0.1 µM, first compound 3 µM): 3.12%
viability, T/C (second compound 0.316 µM, first compound 0.00949 µM): 87.3%
viability, T/C (second compound 0.316 µM, first compound 0.03 µM): 36%
viability, T/C (second compound 0.316 µM, first compound 0.0949 µM): 28.2%
viability, T/C (second compound 0.316 µM, first compound 0.3 µM): 36.1%
viability, T/C (second compound 0.316 µM, first compound 0.949 µM): 14%
viability, T/C (second compound 0.316 µM, first compound 3 µM): 3.11%
viability, T/C (second compound 1 µM, first compound 0.00949 µM): 86.8%
viability, T/C (second compound 1 µM, first compound 0.03 µM): 37.7%
viability, T/C (second compound 1 µM, first compound 0.0949 µM): 28.6%
viability, T/C (second compound 1 µM, first compound 0.3 µM): 35.5%
viability, T/C (second compound 1 µM, first compound 0.949 µM): 12.9%
viability, T/C (second compound 1 µM, first compound 3 µM): 3.58%
viability, T/C (second compound 3.16 µM, first compound 0.00949 µM): 87.5%
viability, T/C (second compound 3.16 µM, first compound 0.03 µM): 37%
viability, T/C (second compound 3.16 µM, first compound 0.0949 µM): 30.1%
viability, T/C (second compound 3.16 µM, first compound 0.3 µM): 33.8%
viability, T/C (second compound 3.16 µM, first compound 0.949 µM): 12.7%
viability, T/C (second compound 3.16 µM, first compound 3 µM): 3.14%
viability, T/C (second compound 10 µM, first compound 0.00949 µM): 83.2%
viability, T/C (second compound 10 µM, first compound 0.03 µM): 38.2%
viability, T/C (second compound 10 µM, first compound 0.0949 µM): 30.4%
viability, T/C (second compound 10 µM, first compound 0.3 µM): 26.7%
viability, T/C (second compound 10 µM, first compound 0.949 µM): 9.22%
viability, T/C (second compound 10 µM, first compound 3 µM): 2.85%

pIC50 (curve of compound): < 5.00
SMILES: CC(C)c1c(-c2ccccc2)nc2c(C#N)c[nH]n2c1=O
viability, T/C (compound 0.0316 µM): 104% and 100%
viability, T/C (compound 0.1 µM): 98.4% and 97%
viability, T/C (compound 0.316 µM): 102% and 101%
viability, T/C (compound 1 µM): 99% and 102%
viability, T/C (compound 3.16 µM): 106% and 109%
viability, T/C (compound 10 µM): 107% and 108%

pIC50 (curve of compound): 5.08 and 5.10
SMILES: COc1ccc([C@@H](O)c2cc(-c3ncnc4cc(N5CCOCC5)ccc34)c(F)cc2Cl)nn1
viability, T/C (compound 0.0316 µM): 100% and 102%
viability, T/C (compound 0.1 µM): 104% and 98.7%
viability, T/C (compound 0.316 µM): 97% and 95.4%
viability, T/C (compound 1 µM): 96.4% and 97%
viability, T/C (compound 3.16 µM): 104% and 99.9%
viability, T/C (compound 10 µM): 40% and 38.6%

pIC50 (curve of compound): 6.23 and 5.81
SMILES: CC1COCCN1c1cc(C2(S(C)(=N)=O)CC2)nc(-c2ccnc3[nH]ccc23)n1 (stereo unspecified)
viability, T/C (compound 0.0316 µM): 91.2% and 107%
viability, T/C (compound 0.1 µM): 89.3% and 102%
viability, T/C (compound 0.316 µM): 74.7% and 91.8%
viability, T/C (compound 1 µM): 29.1% and 74.6%
viability, T/C (compound 3.16 µM): 5.34% and 10.9%
viability, T/C (compound 10 µM): 2.87% and 2.76%

Source: PubChem BioAssay AID1918948 (Molecular Pharmacology Branch, DTP, NCI, 2023)
